These results are taken from US20250339443A1, “METHOD FOR TREATING OR PREVENTING CALCIUM RELEASE-ACTIVATED CALCIUM CHANNEL OR DISCOIDIN DOMAIN RECEPTOR 2 RELATED DISORDERS OR CONDITIONS” (LumiSTAR Biotechnology, Inc., priority 2023, published 2025).

The test system of assay [1] is human pulmonary fibroblast (MRC5). The assay can be described thus: TGF-β1-induced activation of human pulmonary fibroblasts (Western blot). The format is cell-based. The following applies: MRC5, 10 μM co-treatment, 24 hours. As for the experimental part:
(§1) Cells were co-treated with various compounds (10 μM) and TGF-β1 for 24 hours. Following this, cell lysates were harvested, and the protein expression was assessed by Western blot analysis. FIG. 3D depicts the examination of TGF-β1-induced fibronectin deposition and α-SMA expression in HCF treated with 10 μM of DMSO, BTP2, WRG-28, or Av through immunofluorescence staining. The images were captured using a confocal microscope, the Olympus FV-1000. FIG. 3E, FIG. 3F, and FIG. 3G illustrate the assessment of CRAC channel activity in HCF, MRC5, and rat HSC-T6. These cells were pretreated with 10 μM of BTP2, WRG-28, or Av for 45 min. The evaluation included measuring the second peak of each calcium wave and the rate of entry. […]
(§2) Cell lysates were harvested in RIPA buffer (150 mM NaCl, 1 mM EGTA, 50 mM Tris pH 7.4, 10% glycerol, 1% Triton X-100, 1% sodium deoxycholate, 0.1% SDS, and protease inhibitor cocktail) and collected from culture dish with cell scrapers. […] The protein expression levels were assessed by specific primary antibodies, including antibodies against phosphotyrosine (clone 4G10; Millipore), DDR2 (R&D), α-SMA (Sigma), Collagen 1a1 (Boster), E-cadherin (BD Biosciences), SGLT2 (Proteintech), NHE1 (Novus) and β-actin (Clone C4, Millipore), followed by incubating with secondary antibodies conjugated with HRP and detected by ECL kit (Thermo Scientific). […]
Background: Immunoblotting shows a protein as a band on a membrane.

Assay [2] deals with human cardiac fibroblast (HCF). Put plainly: TGF-β1-induced activation of human cardiac fibroblasts (Western blot). The format is cell-based. The following applies: 10 μM co-treatment, 24 hours. As for the experimental part:
as §1, §2

The test system of assay [3] is NRK49F cells. Put plainly: Collagen gel contraction assay. Conditions: NRK49F in collagen gel, 10 ng/ml TGF-β1, 10 μM, 3 days, 8 hours after release. The format is cell-based, rat. The method, then:
FIG. 2A, FIG. 2B, FIG. 2C, FIG. 2D, FIG. 2E, FIG. 2F, FIG. 2G-1, and FIG. 2G-2 display how WRG-28 and Av suppress TGF-β1-induced fibroblasts activation and the differentiation of pericytes into myofibroblasts. […] Each bar represents the mean #SEM. […] The protein levels of collagen 1a1 and α-SMA were assessed using Western blot analysis under various conditions. […] Each bar represents mean±SEM. […] The images were acquired using a confocal microscope (Olympus, MPE). FIG. 2G-1 and FIG. 2G-2 display the measurement of angles between collagen fibers and the cell membrane, conducted using Image J. At least five different images from each condition were analyzed. Each bar represents mean±SEM. In all graphs, *, **, and *** represent p-value <0.05, 0.01, and 0.001, respectively. ‘ns’ denotes p-value >0.05, indicating no significant difference.
The collagen gel was made by mixing 3 ml rat tail collagen (Corning), 1 ml 5.7×DMEM, 500 μl 2.5% NaHCO3, 1 ml 0.1 M HEPES, 100 μl 0.17 M CaCl2, 100 μl 1 N NaOH, and 4.3 ml culture medium containing 2×10^6 NRK49F cells. 2 ml medium with or without 10 ng/ml TGF-β1 was applied onto gel in each well of 6 well-plate and cells were incubated for 3 days. After that gels were released from the culture plate and the gel area was quantified by Image J. […]

On to `CCNS(=O)(=O)c1ccc(COc2ccc3nc4ccc(=O)cc-4oc3c2)cc1` [WRG-28], for which the “upregulation of α-SMA induced by TGF-β1” value in assay [1] and in assay [2] was “suppressed” each time. Further, the “gel shrinkage (relative gel area) upon TGF-β1 stimulation” value in assay [3] is recorded as “markedly reduced”.

With `Cc1nnsc1C(=O)Nc1ccc(-n2nc(C(F)(F)F)cc2C(F)(F)F)cc1` [BTP2], the “upregulation of α-SMA induced by TGF-β1” value in assay [1] and in assay [2] was “suppressed” throughout. The “gel shrinkage (relative gel area) upon TGF-β1 stimulation” value in assay [3] is given as “markedly reduced”.
